# Measurements: PMC7111419 (European Journal of Medicinal Chemistry, 2019)
# pIC50, pKi: −log10 of the molar value. Like-named read-outs stand apart in the source and are kept apart here.
# Tests used:
# [1] = system: βGLU; details: cited from earlier work
# [2] = system: E. coli cells; details: 100 μM; cited from earlier work
# [3] = system: male Fischer rats; details: cited from earlier work; for reduction of aberrant crypt foci formation: 5 weeks, vs azoxymethane-controls
# [4] = system: βGLU; format: biochemical
# [5] = system: newborns; details: cited from earlier work
# [6] = system: male Wister rats; details: cited from earlier work; for tumour size: from 2 cm
# [7] = system: bacterial βGLU; details: cited from earlier work
# [8] = system: whole human gut bacterial βGLU (eight bacterial isolates); details: cited from earlier work
# [9] = system: rat liver βGLU; details: cited from earlier work
# [10] = system: E. coli βGLU; details: cited from earlier work
# [11] = system: male ICR mice; details: cited from earlier work
# [12] = system: male Wistar rats; details: cited from earlier work
# [13] = system: bovine liver βGLU; details: cited from earlier work
# [14] = system: E. coli βGLU; assay: E. coli βGLU inhibition; format: biochemical
# [15] = system: 3T3 cells; details: cited from earlier work
# [16] = system: bacterial βGLU; format: biochemical
# [17] = system: BALB/cJ mice; details: 10 μg twice daily with 50 mg/kg CPT-11 once daily; cited from earlier work
# [18] = cited from earlier work
# [19] = system: Wistar rats; details: 0.8 μg inhibitor, 3 mg/kg diclofenac; cited from earlier work
# [20] = system: neutrophil-derived βGLU; details: 1 μM; cited from earlier work
# [21] = system: salivary βGLU; details: 16 subjects with aggressive periodontitis; cited from earlier work
# [22] = […] test concentration, US 7,294,330 B2
molecule,measurement,setting,value
O=C(Cn1c(-c2ccccn2)nc2ccccc21)c1ccc(Cl)cc1 [Compound 4-Cl],pIC50,[1],4.49
same,cytotoxicity to E. coli cells,[2],cytotoxicity
O=C(Cn1c(-c2ccccn2)nc2ccccc21)c1ccc(F)cc1 [Compound 4-F],pIC50,[1],4.58
"CC(=O)O[C@@H]1C(=O)O[C@H]2[C@@H]1OC(=O)[C@@H]2OC(C)=O [Compound 6, 2,5-di-O-acetyl-D-glucaro-1,4:6,3-dilactone]",reduction of aberrant crypt foci formation,[3]; 0.5% in diet,over 48.6%
same,reduction of aberrant crypt foci formation,[3]; 2% in diet,> 55.3%
same,inhibition of colon carcinogenesis,"[3]; post-initiation phase, 32 weeks treatment (D-GL: 2%)",over 70%
COC(=O)[C@]1(Cc2ccc(O)c(C=O)c2)OC(=O)C(O)=C1c1ccc(O)cc1 [Compound 8],fold stronger potency than prenylated isomer (9),[4],16 fold
same,fold superior potency compared to D-SAL,[4],8 fold
"N[C@@H](CC(=O)O)C(=O)O [Compound 10, L-aspartic acid]",inhibition of βGLU,[1]; 100 μM,~86%
same,fold more potent than D-isomer,[4],100 fold
same,"transcutaneous bilirubin levels, lower than control","[5]; 6 doses, 180 mg/5 ml of water/day, first week of life",25%
same,adverse effects,[5],no adverse effects
"O=c1cc(-c2ccc(O)c(O)c2)oc2cc(O)cc(O)c12 [Compound 11, Luteolin]",bacterial βGLU activity,"[6]; 0.1, 0.2 or 0.3 mg/kg body weight/day p.o., 30 weeks, vs DMH-controls",significantly reduced
same,reduction in tumour incidence,[6],up to 90%
same,tumour size,[6]; initiation stage,0.25 cm
same,tumour size,[6]; post-initiation stage,0.50 cm
"O=c1c(O)c(-c2ccc(O)cc2)oc2cc(O)cc(O)c12 [Compound 19, Kaempferol]",pIC50,[7],4.44
"CC(C)=CC[C@]12Oc3cc(O)c([C@H]4C=C(C)C[C@H](c5ccc(O)cc5O)[C@H]4C(=O)c4ccc(O)cc4O)c(O)c3C(=O)[C@@]1(O)Oc1cc(O)ccc12 [Compound 20, Sanggenon C]",pIC50,[8],4.90
same,inhibition,[8],> 70%
"CC(C)=CCc1c(-c2ccc(O)cc2O)oc2c([C@H]3C=C(C)C[C@@H](c4ccc(O)cc4O)[C@@H]3C(=O)c3ccc(O)cc3O)c(O)cc(O)c2c1=O [Compound 21, Kuwanon G]",pIC50,[8],5.13
same,inhibition,[8],> 70%
"C=CCc1ccc(O)c(OC)c1 [Compound 39, eugenol]",IC50,[1],616.68 µg/mL
"O=c1c2cc(O)c(O)cc2oc2cc(O)c([C@@H]3O[C@H](CO)[C@@H](O)[C@H](O)[C@H]3O)c(O)c12 [Compound 40, mangiferin]",pIC50,[1],4.42
"O=c1c(-c2ccc(O)cc2)coc2cc(O)ccc12 [Compound 41, daidzein]",IC50,[9],0.50 mg/mL
same,IC50,[10],0.41 mg/mL
"COc1c(O[C@@H]2O[C@H](CO)[C@@H](O)[C@H](O)[C@H]2O)cc2occ(-c3ccc(O)cc3)c(=O)c2c1O [Compound 43, tectoridin]",hepatoprotection,[11]; 100 mg/kg intraperitoneal,failure to provide desired hepatoprotection
same,"serum AST, ALT and LDH levels relative to CCl4-treated controls",[11]; 100 mg/kg oral,significantly lowering
same,presence in serum,"[11]; 250 mg/kg oral, only tectorigenin detected",absence in the serum
"CC1(C)[C@@H](O)CC[C@]2(C)[C@H]3C(=O)C=C4[C@@H]5C[C@@](C)(C(=O)O)CC[C@]5(C)CC[C@@]4(C)[C@]3(C)CC[C@@H]12 [Compound 44, 18β-glycyrrhetinic acid]",pIC50,[9],4.37
same,"AST, ALT and LDH levels compared to CCl4-controls",[12]; 100 mg/kg intraperitoneal,significant reduction
same,pIC50,[10],3.29
"CC1(C)[C@@H](O[C@H]2O[C@H](C(=O)O)[C@@H](O)[C@H](O)[C@H]2O[C@@H]2O[C@H](C(=O)O)[C@@H](O)[C@H](O)[C@H]2O)CC[C@]2(C)[C@H]3C(=O)C=C4[C@@H]5C[C@@](C)(C(=O)O)CC[C@]5(C)CC[C@@]4(C)[C@]3(C)CC[C@@H]12 [Compound 45, glycyrrhizinic acid]","AST, ALT and LDH levels compared to CCl4-controls",[12]; 100 mg/kg oral,significant reduction
same,hepatoprotection,[12]; intraperitoneal administration,did not provide hepatoprotection
C[C@]12C=C/C(=N\O)C=C1CC[C@H]1[C@@H]3[C@@H](O)C[C@](C)(O)[C@@]3(C)CC[C@@H]12 [Compound 49],fold superior than Z-isomer,[4],2 fold
NC[C@@H]1C[C@@H]2[C@H](O)[C@@H](O)[C@H](O)[C@@H](C(=O)O)N2C(=O)O1 [Compound 71],pIC50,[13],3.66
NC[C@@H]1OC(=O)N2[C@H]1[C@H](O)[C@@H](O)[C@H](O)[C@H]2C(=O)O [Compound 73],pIC50,[13],3.59
COc1ccc(C[C@@H]2CCC[C@@H]3[C@H](O)[C@@H](O)[C@H](CO)N23)cc1 [Compound 74],inhibition,[10]; 1 mM,< 50%
CCCCCCO[C@H]1C[C@](Cl)(CO)[C@@H](O)[C@H](O)[C@H]1NC(C)=O [Compound 75],pIC50,[10],3.77
"O=C(O)[C@@H]1[C@@H](O)[C@H](O)[C@@]2(O)CC[C@@H]1N2 [Compound 77, uronic-noeurostegine]",selectivity for E. coli βGLU over bovine liver βGLU,[14],38 fold
same,pKi,[10],7.22
CCCC[C@H]1NC[C@@H](O)[C@@H](O)[C@H](O)[C@H]1O [Compound 85],pIC50,[10],3.58
O=C(O)[C@H]1NC[C@H](O)[C@@H](O)[C@@H]1O [Compound 94],selectivity for bovine liver βGLU,[13],3 fold
Oc1ccccc1-c1nc2cc(Cl)cc(Cl)c2[nH]1 [Compound 111],fold potency vs D-SAL,[4],11 fold
O=C(Cn1c(-c2ccccn2)nc2ccccc21)c1ccccc1[N+](=O)[O-] [Compound 112],pIC50,[1],5.39
COc1ccccc1-c1nnc(-c2ccc(C(=O)NNS(=O)(=O)c3cc(Cl)c(Cl)cc3Cl)cc2)o1 [Compound 116],pIC50,[1],5.85
O=C(N/N=C/c1c(O)cc(O)cc1O)c1cc2cc(Cl)ccc2[nH]1 [Compound 128],fold stronger than corresponding oxadiazole variant of compound 115 library,[4],3 fold
O=C(N/N=C/c1ccccc1F)c1cc2cc(Cl)ccc2[nH]1 [Compound 129],fold stronger than corresponding oxadiazole variant of compound 115 library,[4],43 fold
Oc1cccc(C(c2c[nH]c3cc(Br)ccc23)c2c[nH]c3ccc(Br)cc23)c1O (centres unmarked) [Compound 133],cytotoxicity,[15],moderate cytotoxicity
O=C(/C=C/c1ccc(O)cc1)O[C@@H]1O[C@H](Oc2cc(O)c3c(=O)cc(-c4ccc(O)cc4)oc3c2)[C@@H](O)[C@H](O)[C@H]1O [Compound 148],fold potency vs D-SAL,[16],10 fold
same,cytotoxicity,[15],totally non-cytotoxic
CCOc1ccc(NC(=S)N(CCO)Cc2cc3cc(C)cc(C)c3[nH]c2=O)cc1 [Compound 151],CPT-11 induced diarrhoea,[17],alleviated Irinotecan (CPT-11) induced diarrhoea
same,half-life,[18],< 1 h
COc1ccc(NC(=S)N(CCO)Cc2cc3cc(C)cc(C)c3[nH]c2=O)cc1 [Compound 152],fold reduction in severity of diclofenac-induced anastomotic leakage,[19],2 fold
same,fold increased potency vs glucaro-δ-lactam 61,[10],100 fold
COc1ccc(-c2nc(O)c3ccccc3n2)cc1OC [Compound 160],fold potency vs D-SAL,[14],76 fold
O=C1CCCCCC/C=C/CCCCCCC1 [Compound 191],inhibition of E. coli βGLU,[10]; 0.001 wt%,95.8%
same,inhibition of E. coli βGLU,[10]; 0.1 wt% in dipropylene glycol,100%
O=S(=O)(NCc1cccc(Cl)c1)c1cc(Cl)c(Oc2cccc(N3CCNCC3)c2)s1 [Compound 193],IC50,[7]; US 9617.239 B2,equipotent
same,pIC50,"[7]; US 9617.239 B2, listed as C00012",7.70
O=c1c(-c2ccc(O)cc2)coc2cc(O[C@@H]3O[C@H](CO)[C@@H](O)[C@H](O)[C@H]3O)ccc12 [daidzin],IC50,[9],inactive
same,IC50,[10],inactive
"C[C@]12C=CC(=O)C=C1CC[C@@H]1[C@@H]2CC[C@@]2(C)[C@H]1CC[C@]2(C)O [dianabol, reference compound]",IC50,[1],inactive
O=c1c(-c2ccc(O)cc2)coc2c([C@@H]3O[C@H](CO)[C@@H](O)[C@H](O)[C@H]3O)c(O)ccc12 [puerarin],IC50,[9],inactive
same,IC50,[10],inactive
"O=C(O)c1ccccc1O [salicylic acid, reference compound]",inhibition,[1]; 1 mM,24.77%
same,inhibition,[20],25%
O=C([O-])[C@H](O)[C@@H](O)[C@H](O)[C@H](O)CO.O=C([O-])[C@H](O)[C@@H](O)[C@H](O)[C@H](O)CO.[Zn+2] [zinc gluconate],inhibition of E. coli βGLU,[10]; [22],97%
NCC(=O)[O-].NCC(=O)[O-].[Zn+2] [zinc glycinate],inhibition of E. coli βGLU,[10]; [22],99%
doxycycline hyclate,effect on salivary βGLU activity,[21],inefficient
tectorigenin [Compound 42],IC50,[1],300 µg/mL
same,"serum AST, ALT and LDH levels relative to CCl4-treated controls",[11]; 50 mg/kg intraperitoneal pre-treatment,significantly lowering
